Laboratory results as given in US20130225830A1, “POLYMORPHS OF FEBUXOSTAT” (MAPI PHARMA LIMITED, priority 2010, published 2013).
Values after ≈ are worked out from the molar mass of the structure shown. Where two headings read alike, the source gives them in different places.

What was measured:
Type in all cases: physicochemical
[1] = Hygroscopicity measurements (DVS sorption/desorption profiles); conditions: 25° C.
Method: The sorption/desorption profiles of the forms of the present invention were tested at 25° C. under 0-90% relative humidity. The forms of the present invention were classified according to the following criteria: Deliquescent: Sufficient water is absorbed to form a liquid. […] Hygroscopic: Increase in mass is less than 15% and equal to or greater than 2%. Slightly hygroscopic: Increase in mass is less than 2% and equal to or greater than 0.2%. Non-hygroscopic: Increase in mass is less than 0.2%.

[2] = Bulk and tapped density measurements
Method: Bulk density testing: A febuxostat form in an amount which is sufficient to complete the test was passed through a 1.0 mm (No. 18) screen to break up agglomerates that may have formed during storage. The febuxostat form was then weighed (M) and the powder was added into a 10 mL graduated cylinder. The powder was carefully leveled without compacting, and the unsettled apparent volume, Vo, was read. The bulk density, in g per mL, was calculated by the formula: Bulk Density=M/Vo Tapped density testing: A febuxostat form in an amount which is sufficient to complete the test was passed through a 1.0 mm (No. 18) screen to break up agglomerates that may have formed during storage. The febuxostat form was then weighed and the powder was added into a 10 mL graduated cylinder. The powder was carefully leveled without compacting. The cylinder was tapped 500 times initially and the tapped volume, Va, was measured to the nearest graduated unit. The tapping was then repeated for additional 750 times and the tapped volume, Vb, was measured to the nearest graduated unit. If the difference between the two volumes was less than 2%, Vb was taken as the final tapped volume, Vf. The tapped density, in g per mL, was calculated by the formula: Tapped Density=M/Vf

[3] = Aqueous solubility measurements; conditions: for solubility at 24 h: 25 °C, thermodynamic from solid, read-out: HPLC solubility; for pH: final pH of saturated solution
Method: Testing media: water, pH 1.2, 4.5, 6.8, 7.4 USP buffers, 0.01 N HCl, 0.1 N HCl, SGF, FaSSIF, FeSSIF.
The various testing media were prepared as follows:
pH 1.2 (USP): 50 mL of 0.2 M potassium chloride solution were placed in a 200 mL volumetric flask to which 85.0 mL of 0.2M hydrochloric acid solution were added followed by the addition of water to obtain the required volume.
pH 4.5 (USP): 50 mL of 0.2 M potassium biphthalate solution were placed in a 200 mL volumetric flask to which 8.8 mL of 0.2 M sodium hydroxide solution were added followed by the addition of water to obtain the required volume.
pH 6.8 (USP): 50 mL of 0.2 M monobasic potassium phosphate solution were placed in a 200 mL volumetric flask to which 22.4 mL of 0.2 M sodium hydroxide solution were added followed by the addition of water to obtain the required volume.
pH 7.4 (USP): 50 mL of 0.2 M monobasic potassium phosphate solution were placed in a 200 mL volumetric flask to which 39.1 mL of 0.2 M sodium hydroxide solution were added followed by the addition of water to obtain the required volume.
Simulated gastric fluid (SGF): 0.01 N HCl, 0.05% sodium lauryl sulfate, and 0.2% NaCl.
Fasted state simulated intestinal fluid (FaSSIF): 29 mM NaH2PO4, 3 mM Na taurocholate, 0.75 mM lecithin, 103 mM NaCl, and NaOH to obtain pH 6.5.
Fed state simulated intestinal fluid (FeSSIF): 144 mM acetic acid, 15 mM Na taurocholate, 3.75 mM lecithin, 204 mM NaCl, and NaOH to obtain pH 5.0.
Testing procedure: The tested febuxostat form was placed in each of the different media and was kept shaken for 24 hours at 25° C. Then, the saturated solution was filtered. The concentration of the febuxostat form in filtrate was determined by HPLC. The final pH was then tested. The test was conducted in duplication.

[4] = media 0.01N HCl, 24 hours at 25° C.
[5] = media 0.1N HCl, 24 hours at 25° C.
[6] = media FaSSIF, 24 hours at 25° C.
[7] = media FeSSIF, 24 hours at 25° C.
[8] = media pH 1.2 (USP), 24 hours at 25° C.
[9] = media pH 4.5 (USP), 24 hours at 25° C.
[10] = media pH 6.8 (USP), 24 hours at 25° C.
[11] = media pH 7.4 (USP), 24 hours at 25° C.
[12] = media water, 24 hours at 25° C.

## Cc1nc(-c2ccc(OCC(C)C)c(C#N)c2)sc1C(=O)O [Form G of U.S. Pat. No. 6,225,474, 2-(3-cyano-4-isobutoxyphenyl)-4-methyl-5-thiazolecarboxylic acid, reference compound]
[1]; Target % P/P0 0.0
  Change in Mass (%) - ref, Desorption: −0.013%
  Change in Mass (%) - ref, Sorption: 0.000%
[1]; Target % P/P0 10.0
  Change in Mass (%) - ref, Desorption: 1.323%
  Change in Mass (%) - ref, Hysteresis: 0.241%
  Change in Mass (%) - ref, Sorption: 1.082%
[1]; Target % P/P0 20.0
  Change in Mass (%) - ref, Desorption: 1.540%
  Change in Mass (%) - ref, Hysteresis: 0.215%
  Change in Mass (%) - ref, Sorption: 1.326%
[1]; Target % P/P0 30.0
  Change in Mass (%) - ref, Desorption: 1.692%
  Change in Mass (%) - ref, Hysteresis: 0.219%
  Change in Mass (%) - ref, Sorption: 1.473%
[1]; Target % P/P0 40.0
  Change in Mass (%) - ref, Desorption: 1.806%
  Change in Mass (%) - ref, Hysteresis: 0.181%
  Change in Mass (%) - ref, Sorption: 1.625%
[1]; Target % P/P0 50.0
  Change in Mass (%) - ref, Desorption: 1.923%
  Change in Mass (%) - ref, Hysteresis: 0.173%
  Change in Mass (%) - ref, Sorption: 1.750%
[1]; Target % P/P0 60.0
  Change in Mass (%) - ref, Desorption: 2.074%
  Change in Mass (%) - ref, Hysteresis: 0.158%
  Change in Mass (%) - ref, Sorption: 1.915%
[1]; Target % P/P0 70.0
  Change in Mass (%) - ref, Desorption: 2.229%
  Change in Mass (%) - ref, Hysteresis: 0.119%
  Change in Mass (%) - ref, Sorption: 2.109%
[1]; Target % P/P0 80.0
  Change in Mass (%) - ref, Desorption: 2.420%
  Change in Mass (%) - ref, Hysteresis: 0.078%
  Change in Mass (%) - ref, Sorption: 2.342%
[1]; Target % P/P0 90.0
  Change in Mass (%) - ref, Desorption: 2.776%
  Change in Mass (%) - ref, Sorption: 2.776%
[2]
  Bulk Density: 0.376 g/mL
  Tapped Density: 0.511 g/mL
[3]; FaSSIF, pH 6.5, fassif, media FaSSIF, 24 hours at 25° C.
  solubility at 24 h: 448 µg/mL (≈ 1420 µM)
[3]; FeSSIF, pH 5, fessif, media FeSSIF, 24 hours at 25° C.
  solubility at 24 h: 132 µg/mL (≈ 418 µM)
[3]; [4]
  pH: 1.987
  Visual solubility: few particles
[3]; [5]
  pH: 0.945
  Visual solubility: few particles
[3]; [6]
  pH: 6.384
  Visual solubility: Turbid + few particles
[3]; [7]
  pH: 4.965
  Visual solubility: Turbid + few particles
[3]; media SGF, 24 hours at 25° C.
  pH: 2.118
  Visual solubility: few particles
[3]; [8]
  pH: 1.089
  Visual solubility: few particles
[3]; [9]
  pH: 4.469
  HPLC solubility: 0.11 µg/mL
  Visual solubility: few particles
[3]; [10]
  pH: 6.686
  HPLC solubility: 764.90 µg/mL
  Visual solubility: Turbid + few particles
[3]; [11]
  pH: 6.985
  Visual solubility: Slightly Turbid + few
[3]; media water, shaken 24 hours at 25° C.
  pH: 8.416
[3]; [12]
  HPLC solubility: 29.80 µg/mL
  Visual solubility: Turbid + few particles
[3]; pH 7.4 USP buffer, pH 7.4, aqueous buffer, media pH 7.4 (USP), 24 hours at 25° C.
  solubility at 24 h: 3330 µg/mL (≈ 10500 µM)
